# Results published in patent US20090030015A1, “NOVEL MULTI-CYCLIC COMPOUNDS” (REVOTAR BIOPHARMACEUTICALS AG, priority 2005, published 2009).
# Assays:
# [1] = target: T1, human L-Selectin-IgG-chimera (Homo sapiens, UniProt P14151); test: Sialyl Lewis X Tyrosine Sulfate Assay (sLex TSA), L-selectin; format: binding; conditions: sLexTSA
# T1 construct: fused on or other part: human IgG Fc part, captured on the plate by goat anti human Fc antibody; a tag, no second protein
# T1 sequence (P14151 39-318 limits assumed): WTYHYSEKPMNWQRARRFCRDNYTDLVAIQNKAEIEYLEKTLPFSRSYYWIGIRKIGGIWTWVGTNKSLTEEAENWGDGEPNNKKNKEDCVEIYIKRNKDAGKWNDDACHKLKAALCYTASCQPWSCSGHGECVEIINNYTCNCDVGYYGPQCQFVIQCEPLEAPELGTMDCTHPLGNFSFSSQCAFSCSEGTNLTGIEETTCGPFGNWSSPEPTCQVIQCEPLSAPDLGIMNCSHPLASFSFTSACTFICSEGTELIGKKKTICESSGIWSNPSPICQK
# Experimental: (§1) Sialyl Lewis^X Tyrosine Sulfate Assay (sLe^x TSA):
# (§2) Compounds of the present invention are assayed on a molecular level for their ability to inhibit the binding of P-, L-, or E-selectin chimeric molecules to sLe^x and tyrosinesulfate residues linked to a polymeric matrix as a PSGL-1 substitute. Selected IC50-values are determined.
# (§3) Microtiter plates are coated overnight in carbonate buffer pH9.6 with goat anti human Fc mAB (10 μg/ml). After washing in assay buffer (25 mM 4-(2-hydroxyethyl)-1-piperazineethanesulfonic acid (HEPES), 150 mM NaCl, 1 mM CaCl2 pH7.4) and blocking (3% bovine serum albumin (BSA) in assay buffer) plates are incubated for 2 h at 37° C. with human P-Selectin-IgG-chimera (0.61 nM respectively 150 ng/mL) or human L-Selectin-IgG-chimera (0.61 nM respectively 89 ng/mL) or human E-Selectin-IgG-chimera (0.61 nM respectively 131 ng/mL). 5 μl of sLe^x-tyrosine sulfate polyacrylamide (1 mg/ml) carrying 15% sLe^x, 10% Tyrosine-sulfate and 5% biotin is complexed with 20 μl Streptavidin-Peroxidase solution (1 mg/ml) and 25 μl assay buffer without CaCl2. For use in the assay, the ligand complex is diluted 1:10000 in assay buffer and further diluted 1:1 with varying amounts of compounds in assay buffer incl. 2% DMSO. This mixture is added to the wells precoated with E- or P-selectin. After incubation for 2 h at 37° C., wells are washed for six times with in assay buffer incl. 0.005% Polyoxyethylenesorbitan monolaurate (TWEEN 20), developed for 10-15 min with 20 μl 3,3′,5,5′-tetramethylbenzidine (TMB)/H2O2 substrate solution and stopped with 20 μl 1M H2SO4. Bound sLe^x-Tyrosine sulfate ligand complex is determined by measuring optical density at 450 nm vs. 620 nm in a Fusion alpha-FP reader (sold from Packard Bioscience, Dreieich, Germany).
# [2] = system: human E-selectin-IgG chimera; test: Flow chamber assay, cell adhesion and rolling under flow conditions, E-selectin; format: cell-based; conditions: normalized ratio of %-inhibition of compound divided by %-inhibition of bimosiamose; 125 μM compound; HL-60 cells; flow shear 1 dyne/cm^2
# Experimental: (§4) Flow Chamber Assay/Cell Adhesion and Rolling Under Flow Conditions
# (§5) To assess the capability of compounds to inhibit cell binding under dynamic conditions resembling the flow in a blood vessel, flow chamber assays addressing/testing binding of HL-60 cells/various cell lines to P-selectin, L-selectin and E-selectin chimeric molecules are performed.
# (§6) Cell attachment under flow conditions is determined using a parallel flow chamber system. A 35 mm polystyrene culture dish is coated for 1 hour at room temperature with coating buffer (50 mM tris-(hydroxymethyl)aminomethane buffer (Tris), 150 mM NaCl, 2 mM CaCl2; pH 7.4) containing human E- or P-selectin-IgG chimera at concentrations of 2.5 μg/ml or 10 μg/ml, respectively. After removal of the coating solution non specific binding sites are blocked for an additional hour with 1% BSA in coating buffer at room temperature. After washing with assay buffer (“Roswell Park Memorial Institute 1640” (RPMI 1640)+10 mM HEPES) the dish is fitted into a parallel plate laminar flow chamber (sold from Glycotech, Rockville, Md.) and mounted on an inverted phase-contrast microscope (sold from Olympus, Hamburg, Germany) equipped with a CCD camera (JVC) that is connected to a PC. Employing a peristaltic pump (sold from Ismatec, Wertheim-Mondfeld, Germany) the re-circulating system is equilibrated with assay buffer containing 125 μM compound or vehicle control (DMSO). Cells (1 million/ml) are added to the chamber and allowed to distribute for 2 minutes at a high flow rate. The flow rate is then decreased resulting in a calculated flow shear of 1 dyne/cm^2. Video sequences of 10 low power fields are digitally recorded after 5 minutes continuous flow. The percentage of inhibition is calculated from the mean number of cells per field that attached to the coated dish surface in the presence versus absence of compound […].
# [3] = system: human P-selectin-IgG chimera; test: Flow chamber assay, cell adhesion and rolling under flow conditions, P-selectin; format: cell-based; conditions: normalized ratio of %-inhibition of compound divided by %-inhibition of bimosiamose; 125 μM compound; HL-60 cells; flow shear 1 dyne/cm^2
# Experimental: as §4, §5, §6
# [4] = target: T2, human P-Selectin-IgG-chimera (Homo sapiens, UniProt P16109); test: Sialyl Lewis X Tyrosine Sulfate Assay (sLex TSA), P-selectin; format: binding; conditions: sLexTSA
# T2 sequence (P16109 42-771 limits assumed): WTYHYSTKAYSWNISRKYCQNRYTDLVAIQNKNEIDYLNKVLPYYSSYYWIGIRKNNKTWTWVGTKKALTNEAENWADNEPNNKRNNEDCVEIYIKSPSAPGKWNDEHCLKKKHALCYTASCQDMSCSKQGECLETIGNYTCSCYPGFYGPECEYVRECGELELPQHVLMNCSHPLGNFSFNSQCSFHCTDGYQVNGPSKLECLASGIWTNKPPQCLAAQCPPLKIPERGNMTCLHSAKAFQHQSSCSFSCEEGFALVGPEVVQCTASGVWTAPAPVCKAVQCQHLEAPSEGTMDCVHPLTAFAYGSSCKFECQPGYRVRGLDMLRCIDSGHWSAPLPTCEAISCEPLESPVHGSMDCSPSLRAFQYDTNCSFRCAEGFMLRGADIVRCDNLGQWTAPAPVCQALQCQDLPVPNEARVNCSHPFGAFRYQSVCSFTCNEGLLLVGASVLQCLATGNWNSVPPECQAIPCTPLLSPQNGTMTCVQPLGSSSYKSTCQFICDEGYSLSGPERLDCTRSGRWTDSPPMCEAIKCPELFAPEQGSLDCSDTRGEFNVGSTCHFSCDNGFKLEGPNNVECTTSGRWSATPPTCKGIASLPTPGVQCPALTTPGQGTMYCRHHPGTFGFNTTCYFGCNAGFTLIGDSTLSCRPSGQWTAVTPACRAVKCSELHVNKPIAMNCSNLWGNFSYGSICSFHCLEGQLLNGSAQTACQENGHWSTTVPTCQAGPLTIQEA
# Experimental: as §1, §2, §3
IC50 [1],IC50 [4],SMILES,E-Selectin [Ratio] [2],P-Selectin [Ratio] [3]
> 500 µM,–,"O=C(O)Cc1cccc(-c2cc(CCCCCCc3ccc(O[C@H]4O[C@H](CO)[C@@H](O)[C@H](O)[C@@H]4O)c(-c4cccc(CC(=O)O)c4)c3)ccc2O[C@H]2O[C@H](CO)[C@@H](O)[C@H](O)[C@@H]2O)c1 [Bimosiamose, bimosiamose, reference compound]",–,–
–,–,"Cc1oc(-c2ccc(NC(=O)Cc3ccc(O)cc3O)cc2)cc1C(=O)O [Compound 29, 5-{4-[2-(2,4-Dihydroxy-phenyl)-acetylamino]-phenyl}-2-methyl-furan-3-carboxylic acid]",1.31 Ratio,0.74 Ratio
–,–,"Cc1oc(-c2ccc(NC(=O)Cc3cc(O)cc(O)c3)cc2)cc1C(=O)O [Compound 31, 5-{4-[2-(3,5-Dihydroxy-phenyl)-acetylamino]-phenyl}-2-methyl-furan-3-carboxylic acid]",1.16 Ratio,0.60 Ratio
151 µM,62.9 µM,"COc1ccc(-c2cccc(C(=O)Nc3ccccc3-c3ccc(CC(=O)O)s3)c2)c(OC)c1 [Compound 62, (5-{2-[(2′,4′-Dimethoxy-biphenyl-3-carbonyl)-amino]-phenyl}-thiophen-2-yl)acetic acid]",1.15 Ratio,1.22 Ratio
157 µM,81.2 µM,"O=C(O)Cc1ccc(-c2ccccc2NC(=O)c2cccc(-c3ccc(O)cc3O)c2)s1 [Compound 63, (5-{2-[(2′,4′-Dihydroxy-biphenyl-3-carbonyl)-amino]-phenyl}-thiophen-2-yl)acetic acid]",1.31 Ratio,1.95 Ratio
62.3 µM,50 µM,"COC(=O)Cc1ccc(-c2ccccc2NC(=O)c2cccc(-c3ccc(O)cc3O)c2)s1 [Compound 64, (5-{2-[(2′,4′-Dihydroxy-biphenyl-3-carbonyl)-amino]-phenyl}-thiophen-2-yl)acetic acid methyl ester]",1.34 Ratio,1.70 Ratio
152 µM,67.8 µM,COc1ccc(-c2cccc(C(=O)Nc3ccccc3-c3ccc(C(=O)O)s3)c2)c(OC)c1 [Compound 66],1.21 Ratio,0.76 Ratio
434 µM,201 µM,O=C(Nc1ccccc1-c1ccc(C(=O)O)s1)c1cccc(-c2ccc(O)cc2O)c1 [Compound 67],1.60 Ratio,0.92 Ratio
–,354 µM,"O=C(O)Cc1ccc(-c2ccccc2NC(=O)Cc2cccc(-c3ccc(O)cc3O)c2)s1 [Compound 70, (5-{2-[2-(2′,4′-Dihydroxy-biphenyl-3-yl)-acetylamino]-phenyl}-thiophen-2-yl)-acetic acid]",0.83 Ratio,0.82 Ratio
–,–,"COC(=O)Cc1ccc(-c2ccccc2NC(=O)c2cncc(-c3ccc(O)cc3O)c2)s1 [Compound 74, [5-(2-{[5-(2,4-Dihydroxy-phenyl)-pyridine-3-carbonyl]-amino}-phenyl)-thiophen-2-yl]-acetic acid methyl ester]",0.68 Ratio,1.02 Ratio
–,–,"O=C(O)c1cccc(NC(=O)c2cccc(-c3ccc(O)cc3O)c2)c1 [Compound 79, 3-[(2′,4′-Dihydroxy-biphenyl-3-carbonyl)-amino]-benzoic acid]",0.96 Ratio,1.19 Ratio
–,–,"O=C(O)Cc1ccc(-c2ccccc2NC(=O)c2cccc(-c3cc(O)cc(O)c3)c2)s1 [Compound 82, (5-{2-[(3′,5′-Dihydroxy-biphenyl-3-carbonyl)-amino]-phenyl}-thiophen-2-yl)-acetic acid]",1.35 Ratio,2.11 Ratio
–,–,"O=C(Nc1ccccc1-c1ccc(C(=O)O)s1)c1cccc(-c2cc(O)cc(O)c2)c1 [Compound 85, 5-{2-[(3′,5′-Dihydroxy-biphenyl-3-carbonyl)-amino]-phenyl}-thiophene-2-carboxylic acid]",1.20 Ratio,1.90 Ratio
–,–,"O=C(Nc1ccccc1-c1cccs1)c1cccc(-c2ccc(O)cc2O)c1 [Compound 87, 2′,4′-Dihydroxy-biphenyl-3-carboxylic acid (2-thiophen-2-yl-phenyl)-amide]",1.24 Ratio,1.05 Ratio
–,–,"COc1ccc(-c2cccc(C(=O)Nc3cccc(-c4ccc(CC(=O)O)s4)c3)c2)c(OC)c1 [Compound 89, (5-{3-[(2′,4′-Dimethoxy-biphenyl-3-carbonyl)-amino]-phenyl}-thiophen-2-yl)-acetic acid]",1.27 Ratio,1.41 Ratio
38.7 µM,19.1 µM,"O=C(O)Cc1ccc(-c2cccc(NC(=O)c3cccc(-c4ccc(O)cc4O)c3)c2)s1 [Compound 90, (5-{3-[(2′,4′-Dihydroxy-biphenyl-3-carbonyl)-amino]-phenyl}-thiophen-2-yl)-acetic acid]",–,–
–,–,"Cc1oc(-c2ccc(NC(=O)c3cccc(-c4ccc(O)cc4O)c3)nc2)cc1C(=O)O [Compound 93, 5-{6-[(2′,4′-Dihydroxy-biphenyl-3-carbonyl)-amino]-pyridin-3-yl}-2-methyl-furan-3-carboxylic acid]",0.86 Ratio,1.13 Ratio
–,–,"Cc1oc(-c2ccc(NC(=O)c3cccc(-c4ccc(O)cc4O)c3)cc2)cc1C(=O)O [Compound 96, 5-{4-[(2′,4′-Dihydroxy-biphenyl-3-carbonyl)-amino]-phenyl}-2-methyl-furan-3-carboxylic acid]",1.13 Ratio,1.02 Ratio
–,–,"O=C(Nc1cccc(C(F)(F)F)c1)c1cccc(-c2ccc(O)cc2O)c1 [Compound 98, 2′,4′-Dihydroxy-biphenyl-3-carboxylic acid (3-trifluoromethyl-phenyl)-amide]",1.26 Ratio,1.00 Ratio
